# Measured values taken from US5091169A, “Dipyridoxyl phosphate NMRI contrast agent compositions” (priority 1989, dated 1992).
# Read-outs that look alike come from different tables or passages of the source.
# Columns and labels:
# selected body organs [1] = system: selected body organs
# Method: Each of four rabbits was injected intravenously with one of the following amounts of the solution obtained in Example 7: 0.01 mmoles/kg, 0.05 mmoles/kg, 0.10 mmoles/kg and 0.20 mmoles/kg. The rabbits were sacrificed 30 min post injection, and the proton relaxation values of selected body organs were measured with NMR, in vitro at 10 MHz.
# [2] = Description: The compound DPDP was studied potentiometrically from pH 11.2 to 2.0. Data sets were collected on a custom-built automatic potentiometric titration apparatus composed of a METROHM 655 DOSIMAT automatic buret, a FISHER ACCUMET pH meter with a CORNING calomel combination electrode, a custom-blown water jacketed titration cell, a BRINKMAN LAUDA K-2/R constant temperature bath and a COMMODORE 64 computer. The BASIC computer program TITRATOR (Harris, W. et al, J.Am.Chem.Soc. 101:6534 (1979)) runs the apparatus. Data analysis was performed on an IBM-AT computer using the least squares program, BETA (Harris, W. et al, supra), and the data analysis program, HANDNBAR (Harris, W. et al, supra). The titrants were standardized by phenophthalein titration as follows: KOH was calibrated against potassium hydrogen phthalate (a primary standard), and HCl solutions were calibrated against the KOH standard. The Mn(II)Cl2 solution was standardized with an EDTA titration using Erichrome Black T as the indicator. All solutions were made from distilled, deionized water that was further purified on a MILLI-Q cartridge system, degassed, and then kept under an atmosphere of argon which had been scrubbed for CO2 and O2. Additions of EDTA and Mn(II) solutions were performed using calibrated GILMOT pipets. The electrode was calibrated in concentration units with degassed solutions of p[H+]=2.291 and 1.078 at 0.1 M ionic strength.
# The metal complex titration was performed by adding 152.2 mg (0.2383 mmoles) to 74.6 ml of a high pH aqueous solution. 2.07 ml of a 0.1152 M Mn(II) solution (0.2386 mmoles) were added. The complex was then titrated to low pH with 1.002 N HCl.
# selected body organs [3] = details: for T1, Bile / T1, Heart / T1, Liver / T1, Renal cortex / T1, Renal medulla: 0.01 mmol/kg i.v., 10 MHz
# Method: Each of seven rabbits was injected intravenously with 0.01 mmol/kg of the solution obtained in Example 7. The rabbits were sacrificed at 0.25, 0.50, 1.0, 2.0, 4, 6 and 24 hours post-injection, and the proton relation values of selected body organs were measured with NMR, in vitro, at 10 MHz.
# [4] = 10 MHz, 37° C
# Method: The relations of protons present in water and plasma exposed to the chelate product of Example 7 was tested by NMR for relaxities, in msec, at 10 MHz, 37° C.
# [5] = 0.20 mmol/kg i.v., 30 min, 10 MHz
compound,measurement,setting,value
"Cc1ncc(COP(=O)(O)O)c(CN(CCN(CC(=O)[O-])Cc2c(COP(=O)(O)O)cnc(C)c2O)CC(=O)[O-])c1O.[Mn+2] [Mn(DPDP), manganese chelate complex of N,N'-bis-(pyridoxal-5-phosphate)ethylenediamine-N,N'-diacetic acid]","T2, Brain",selected body organs [1]; [5],66 ms
same,"T2, Heart",selected body organs [1]; [5],47 ms
same,"T2, Large Int.",selected body organs [1]; [5],74 ms
same,"T2, Liver",selected body organs [1]; [5],25 ms
same,"T2, Lung",selected body organs [1]; [5],63 ms
same,"T2, Renal Cort.",selected body organs [1]; [5],53 ms
same,"T2, Renal Med.",selected body organs [1]; [5],60 ms
same,"T2, Skel. Musc.",selected body organs [1]; [5],31 ms
same,"T2, Small Int.",selected body organs [1]; [5],46 ms
same,"T2, Stom.",selected body organs [1]; [5],53 ms
same,heart uptake vs dose,selected body organs [1]; dose range studied,the heart continues to uptake Mn(DPDP) through the dose range studied
same,uptake in organs,"selected body organs [1]; heart, liver and kidneys, i.v.","rapid uptake of the Mn(DPDP) in the heart, liver and kidneys"
same,brain uptake,selected body organs [1]; higher doses,uptake by the brain was observed at higher doses
same,"saturating dose, liver and kidneys","selected body organs [1]; i.v., 30 min post injection",0.10 mmol/kg
same,log Kf (formation constant),"[2]; Mn(II) chelate, titrated from pH 11.1 to 2.0",14.8
same,binding of Mn(II) ion,[2]; physiological pH,quantitatively bound to the chelating agent
same,pH below which chelate begins to demetallate,[2]; titration data,below 4.5
same,"T1, Bile",selected body organs [3]; 0.25 hr,160 ms
same,"T1, Heart",selected body organs [3]; 0.25 hr,231 ms
same,"T1, Liver",selected body organs [3]; 0.25 hr,68 ms
same,"T1, Renal cortex",selected body organs [3]; 0.25 hr,202 ms
same,"T1, Renal medulla",selected body organs [3]; 0.25 hr,192 ms
same,"T1, Bile",selected body organs [3]; 0.50 hr,46 ms
same,"T1, Heart",selected body organs [3]; 0.50 hr,352 ms
same,"T1, Liver",selected body organs [3]; 0.50 hr,76 ms
same,"T1, Renal cortex",selected body organs [3]; 0.50 hr,191 ms
same,"T1, Renal medulla",selected body organs [3]; 0.50 hr,231 ms
same,"T1, Bile",selected body organs [3]; 1.0 hr,25 ms
same,"T1, Heart",selected body organs [3]; 1.0 hr,381 ms
same,"T1, Liver",selected body organs [3]; 1.0 hr,48 ms
same,"T1, Renal cortex",selected body organs [3]; 1.0 hr,229 ms
same,"T1, Renal medulla",selected body organs [3]; 1.0 hr,236 ms
same,"T1, Bile",selected body organs [3]; 2 hr,21 ms
same,"T1, Heart",selected body organs [3]; 2 hr,507 ms
same,"T1, Liver",selected body organs [3]; 2 hr,48 ms
same,"T1, Renal cortex",selected body organs [3]; 2 hr,192 ms
same,"T1, Renal medulla",selected body organs [3]; 2 hr,310 ms
same,"T1, Bile",selected body organs [3]; 4 hr,< 1 ms
same,"T1, Heart",selected body organs [3]; 4 hr,522 ms
same,"T1, Liver",selected body organs [3]; 4 hr,145 ms
same,"T1, Renal cortex",selected body organs [3]; 4 hr,210 ms
same,"T1, Renal medulla",selected body organs [3]; 4 hr,340 ms
same,"T1, Bile",selected body organs [3]; 6 hr,14 ms
same,"T1, Heart",selected body organs [3]; 6 hr,663 ms
same,"T1, Liver",selected body organs [3]; 6 hr,209 ms
same,"T1, Renal cortex",selected body organs [3]; 6 hr,239 ms
same,"T1, Renal medulla",selected body organs [3]; 6 hr,375 ms
same,"T1, Bile",selected body organs [3]; 24 hr,107 ms
same,"T1, Heart",selected body organs [3]; 24 hr,660 ms
same,"T1, Liver",selected body organs [3]; 24 hr,315 ms
same,"T1, Renal cortex",selected body organs [3]; 24 hr,328 ms
same,"T1, Renal medulla",selected body organs [3]; 24 hr,563 ms
same,uptake and clearance,"selected body organs [3]; liver, renal cortex, renal medulla and heart","rapid uptake and clearance of Mn(DPDP) in the liver, renal cortex, renal medulla and heart"
same,clearance time through renal and hepatobiliary systems,"selected body organs [3]; post-injection, i.v.",6 to 8 h
same,collection in extravascular space,blood-brain barrier; defect in blood-brain barrier,large amounts of the complex of Mn(DPDP) collect in the extravascular space
same,observation of blood-brain barrier defects by NMRI,blood-brain barrier; not observable without Mn(DPDP) as contrast agent,such defects were observed by NMRI tomography
same,T1 (Plasma),[4]; 0.000039 Molar,1103 ms
same,T1 (Plasma),[4]; 0.000078 Molar,995 ms
same,T1 (Plasma),[4]; 0.000156 Molar,856 ms
same,T1 (Water),[4]; 0.000156 Molar,1470 ms
same,T1 (Plasma),[4]; 0.000312 Molar,624 ms
same,T1 (Water),[4]; 0.000312 Molar,1083 ms
same,T1 (Plasma),[4]; 0.000625 Molar,398 ms
same,T1 (Water),[4]; 0.000625 Molar,639 ms
same,T1 (Plasma),[4]; 0.00125 Molar,240 ms
same,T1 (Water),[4]; 0.00125 Molar,332 ms
same,T1 (Plasma),[4]; 0.0025 Molar,139 ms
same,T1 (Water),[4]; 0.0025 Molar,175 ms
same,T2 (Plasma),[4]; 0.0025 Molar,124 ms
same,T1 (Plasma),[4]; 0.005 Molar,74 ms
same,T1 (Water),[4]; 0.005 Molar,100 ms
same,T2 (Plasma),[4]; 0.005 Molar,68 ms
same,T2 (Water),[4]; 0.005 Molar,86 ms
same,T1 (Plasma),[4]; 0.010 Molar,40 ms
same,T1 (Water),[4]; 0.010 Molar,43 ms
same,T2 (Plasma),[4]; 0.010 Molar,34 ms
same,T2 (Water),[4]; 0.010 Molar,41 ms
